{
  "source": "paper PMC6905088",
  "about": "(Biochemical pharmacology, 2019)",
  "key": {"CYP2D6": {"target": "CYP2D6 (Homo sapiens, UniProt P10635)", "sequence (P10635 whole entry)": "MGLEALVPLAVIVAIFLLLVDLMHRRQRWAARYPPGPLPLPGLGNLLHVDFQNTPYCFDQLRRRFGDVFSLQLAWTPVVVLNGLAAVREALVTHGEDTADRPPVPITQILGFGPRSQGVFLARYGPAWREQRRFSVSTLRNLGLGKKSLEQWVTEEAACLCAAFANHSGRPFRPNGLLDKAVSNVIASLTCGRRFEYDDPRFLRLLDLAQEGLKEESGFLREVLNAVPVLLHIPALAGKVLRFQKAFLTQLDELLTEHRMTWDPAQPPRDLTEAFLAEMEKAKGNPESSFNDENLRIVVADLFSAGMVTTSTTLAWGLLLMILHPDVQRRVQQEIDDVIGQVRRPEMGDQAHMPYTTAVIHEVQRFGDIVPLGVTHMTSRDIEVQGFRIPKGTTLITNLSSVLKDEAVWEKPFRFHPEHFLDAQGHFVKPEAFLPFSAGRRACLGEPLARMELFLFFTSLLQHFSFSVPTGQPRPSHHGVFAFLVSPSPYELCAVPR"}, "CYP1A2": {"target": "T1, CYP1A2 (Homo sapiens, UniProt P05177)", "T1 sequence (P05177 1-516)": "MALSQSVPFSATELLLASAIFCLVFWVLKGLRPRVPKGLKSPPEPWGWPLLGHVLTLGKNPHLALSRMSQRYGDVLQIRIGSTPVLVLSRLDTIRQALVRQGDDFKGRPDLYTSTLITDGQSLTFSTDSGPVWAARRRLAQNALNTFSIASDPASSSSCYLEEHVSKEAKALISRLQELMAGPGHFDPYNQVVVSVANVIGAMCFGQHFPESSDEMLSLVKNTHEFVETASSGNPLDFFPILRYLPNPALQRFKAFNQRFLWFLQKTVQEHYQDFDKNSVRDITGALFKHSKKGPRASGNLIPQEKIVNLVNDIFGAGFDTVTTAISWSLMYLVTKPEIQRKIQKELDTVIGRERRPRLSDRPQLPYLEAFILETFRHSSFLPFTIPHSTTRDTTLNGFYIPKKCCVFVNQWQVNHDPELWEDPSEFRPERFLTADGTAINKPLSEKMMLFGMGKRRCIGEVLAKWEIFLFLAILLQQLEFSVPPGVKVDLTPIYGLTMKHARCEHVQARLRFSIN", "experiment": "Recombinant isozyme kinetic assay", "settings": "substrate desmethyl-terbinafine"}, "CYP2B6": {"target": "T2, CYP2B6 (Homo sapiens, UniProt P20813)", "T2 sequence (P20813 1-491)": "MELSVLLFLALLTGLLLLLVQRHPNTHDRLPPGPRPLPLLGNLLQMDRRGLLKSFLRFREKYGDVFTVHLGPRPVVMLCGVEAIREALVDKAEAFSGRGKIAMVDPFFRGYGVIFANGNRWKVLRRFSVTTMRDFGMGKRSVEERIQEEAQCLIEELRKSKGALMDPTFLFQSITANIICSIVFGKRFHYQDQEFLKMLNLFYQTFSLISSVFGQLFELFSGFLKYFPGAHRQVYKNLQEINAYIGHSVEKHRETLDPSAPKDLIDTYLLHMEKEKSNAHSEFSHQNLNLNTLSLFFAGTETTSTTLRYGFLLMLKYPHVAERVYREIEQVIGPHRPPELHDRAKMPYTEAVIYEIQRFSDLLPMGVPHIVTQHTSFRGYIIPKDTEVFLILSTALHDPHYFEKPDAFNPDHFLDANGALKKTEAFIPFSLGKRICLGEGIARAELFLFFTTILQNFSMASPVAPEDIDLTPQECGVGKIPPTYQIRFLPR", "experiment": "Recombinant isozyme kinetic assay", "settings": "substrate desmethyl-terbinafine"}, "CYP2C8": {"target": "T3, CYP2C8 (Homo sapiens, UniProt P10632)", "T3 sequence (P10632 1-490)": "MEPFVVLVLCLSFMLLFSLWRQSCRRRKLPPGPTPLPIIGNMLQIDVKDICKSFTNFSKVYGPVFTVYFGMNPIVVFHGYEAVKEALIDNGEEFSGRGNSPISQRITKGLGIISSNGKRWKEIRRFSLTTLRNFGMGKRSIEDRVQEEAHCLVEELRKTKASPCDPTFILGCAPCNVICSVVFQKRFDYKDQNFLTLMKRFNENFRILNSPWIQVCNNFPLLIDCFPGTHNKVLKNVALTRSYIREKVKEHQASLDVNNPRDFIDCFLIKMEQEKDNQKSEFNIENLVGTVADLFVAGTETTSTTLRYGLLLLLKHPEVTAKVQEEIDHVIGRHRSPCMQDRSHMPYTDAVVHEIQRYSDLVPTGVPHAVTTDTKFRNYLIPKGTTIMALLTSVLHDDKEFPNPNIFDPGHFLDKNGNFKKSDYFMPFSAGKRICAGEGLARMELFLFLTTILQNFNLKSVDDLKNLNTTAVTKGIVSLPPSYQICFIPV", "experiment": "Recombinant isozyme kinetic assay", "settings": "substrate desmethyl-terbinafine"}, "CYP2C9": {"target": "CYP2C9 (Homo sapiens, UniProt P11712)", "sequence (P11712 whole entry)": "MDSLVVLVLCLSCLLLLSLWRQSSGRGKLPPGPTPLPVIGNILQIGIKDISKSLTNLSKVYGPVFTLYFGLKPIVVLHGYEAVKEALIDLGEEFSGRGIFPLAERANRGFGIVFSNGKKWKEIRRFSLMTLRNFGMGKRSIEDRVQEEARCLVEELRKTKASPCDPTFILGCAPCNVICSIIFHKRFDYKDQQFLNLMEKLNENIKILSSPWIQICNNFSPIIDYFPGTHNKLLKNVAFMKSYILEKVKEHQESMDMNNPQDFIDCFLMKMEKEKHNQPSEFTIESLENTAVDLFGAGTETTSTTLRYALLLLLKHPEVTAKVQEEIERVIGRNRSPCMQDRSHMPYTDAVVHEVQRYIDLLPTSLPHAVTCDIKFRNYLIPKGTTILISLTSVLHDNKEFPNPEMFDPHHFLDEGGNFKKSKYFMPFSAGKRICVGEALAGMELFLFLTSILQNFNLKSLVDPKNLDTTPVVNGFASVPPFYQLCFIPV", "experiment": "Recombinant isozyme kinetic assay"}, "[1]": {"settings": "normalized MS peak area, scaled x10^6"}, "[2]": {"settings": "CYP2C9, Step 2.2b, substrate desmethyl-terbinafine"}},
  "data": [
    {"smiles": "CC(C)(C)C#C/C=C/CNCc1cccc2ccccc12.Cl", "note": "[desmethyl-terbinafine, N-desmethyl-terbinafine hydrochloride]", "values": [
      {"measurement": "desmethyl hydroxyterbinafine formation (kinetic constants)", "setting": "CYP2D6", "result": "undetected"},
      {"measurement": "desmethyl hydroxyterbinafine formation (kinetic constants)", "setting": "CYP1A2", "result": "undetected"},
      {"measurement": "desmethyl-terbinafine dihydrodiol formation (kinetic constants)", "setting": "CYP1A2", "result": "undetected"},
      {"measurement": "6,6-dimethyl-2-hepten-4-yn-1-amine formation (steady-state kinetic constants)", "setting": "CYP2B6; Step 2.2b", "result": "undetected"},
      {"measurement": "Vmax, desmethyl hydroxyterbinafine formation", "setting": "CYP2B6; no saturation", "result": "linear"},
      {"measurement": "Vmax, desmethyl-terbinafine dihydrodiol formation", "setting": "CYP2B6; [1]", "result": "0.59 ± 0.13", "unit": "μV*sec/min/nmol"},
      {"measurement": "Vmax, 1-naphthyl-methylamine formation", "setting": "CYP2C8; Step 2.2a", "result": "85 ± 6.5", "unit": "pmol/min/nmol protein"},
      {"measurement": "6,6-dimethyl-2-hepten-4-yn-1-amine formation (steady-state kinetic constants)", "setting": "CYP2C8; Step 2.2b", "result": "undetected"},
      {"measurement": "Vmax, 1-naphthaldehyde formation", "setting": "CYP2C8; Step 2.2b", "result": "300 ± 28", "unit": "pmol/min/nmol protein"},
      {"measurement": "desmethyl-terbinafine dihydrodiol formation (kinetic constants)", "setting": "CYP2C8", "result": "undetected"},
      {"measurement": "Vmax, desmethyl hydroxyterbinafine formation", "setting": "CYP2C8; [1]", "result": "0.61 ± 0.04", "unit": "μV*sec/min/nmol"},
      {"measurement": "Vmax, 1-naphthyl-methylamine formation", "setting": "CYP2C9; CYP2C9, Step 2.2a, substrate desmethyl-terbinafine", "result": "330 ± 41", "unit": "pmol/min/nmol protein"},
      {"measurement": "6,6-dimethyl-2-hepten-4-yn-1-amine formation (steady-state kinetic constants)", "setting": "CYP2C9; [2]", "result": "undetected"},
      {"measurement": "Vmax, 1-naphthaldehyde formation", "setting": "CYP2C9; [2]", "result": "69 ± 4.4", "unit": "pmol/min/nmol protein"},
      {"measurement": "desmethyl hydroxyterbinafine formation (kinetic constants)", "setting": "CYP2C9; CYP2C9, substrate desmethyl-terbinafine", "result": "undetected"},
      {"measurement": "Vmax, desmethyl-terbinafine dihydrodiol formation", "setting": "CYP2C9; CYP2C9, substrate desmethyl-terbinafine, normalized MS peak area, scaled x10^6", "result": "2.0 ± 0.07", "unit": "μV*sec/min/nmol"},
      {"measurement": "fold higher efficiency of dihydrodiol formation by CYP2C9 vs CYP2B6", "setting": "CYP2C9; substrate desmethylterbinafine", "result": 50, "unit": "fold"}
    ]}
  ]
}
